Experimental data: the supplement of paper PMC10307832

What was measured:
Assay in all cases: relative viability (nuclei count vs DMSO), 5 days (fraction); higher = more cells survive
Decitabine + Foretinib = compound: Nc1ncn([C@H]2C[C@H](O)[C@@H](CO)O2)c(=O)n1 [Decitabine] + COc1cc2c(Oc3ccc(NC(=O)C4(C(=O)Nc5ccc(F)cc5)CC4)cc3F)ccnc2cc1OCCCN1CCOCC1 [Foretinib] (partner 0.25 µM)
Procedure, shortened: (§1)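 The day after seeding in 1536-well plates, lung cancer cell lines were treated by pin tool with a single drug, or with a fixed anchor-drug dose together with five library-drug doses (not always all listed) in √10 steps. After 5 days, a combined fix-and-stain solution (final 0.05% Triton X-100, 1% formaldehyde, 1 ug/ml Hoechst) was added. Nuclei counted on 4× images gave relative viability as treated counts over vehicle counts, reported as the median of duplicate plates.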

Halofuginone + OSI-027 = compound: O=C(C[C@H]1NCCC[C@@H]1O)Cn1cnc2cc(Br)c(Cl)cc2c1=O (racemic) [Halofuginone] + COc1cccc2cc(-c3nc([C@H]4CC[C@H](C(=O)O)CC4)n4ncnc(N)c34)[nH]c12 [OSI-027] (partner 0.5 µM)
Procedure, shortened: as §1

Cediranib + Decitabine = compound: COc1cc2c(Oc3ccc4[nH]c(C)cc4c3F)ncnc2cc1OCCCN1CCCC1 [Cediranib] + Nc1ncn([C@H]2C[C@H](O)[C@@H](CO)O2)c(=O)n1 [Decitabine] (partner 2 µM)
Procedure, shortened: as §1

Decitabine + Navitoclax = compound: Nc1ncn([C@H]2C[C@H](O)[C@@H](CO)O2)c(=O)n1 [Decitabine] + CC1(C)CCC(c2ccc(Cl)cc2)=C(CN2CCN(c3ccc(C(=O)NS(=O)(=O)c4ccc(N[C@H](CCN5CCOCC5)CSc5ccccc5)c(S(=O)(=O)C(F)(F)F)c4)cc3)CC2)C1 [Navitoclax] (partner 0.5 µM)
Procedure, shortened: as §1

Cell Line	relative viability (Decitabine + Foretinib; first compound 0.04 µM)	relative viability (Decitabine + Foretinib; first compound 0.1265 µM)	relative viability (Decitabine + Foretinib; first compound 0.4 µM)	relative viability (Decitabine + Foretinib; first compound 1.265 µM)	relative viability (Decitabine + Foretinib; first compound 4 µM)	relative viability (Halofuginone + OSI-027; first compound 0.001 µM)	relative viability (Halofuginone + OSI-027; first compound 0.003162 µM)	relative viability (Halofuginone + OSI-027; first compound 0.01 µM)	relative viability (Halofuginone + OSI-027; first compound 0.03162 µM)	relative viability (Halofuginone + OSI-027; first compound 0.1 µM)	relative viability (Cediranib + Decitabine; first compound 0.04 µM)	relative viability (Cediranib + Decitabine; first compound 0.1265 µM)	relative viability (Cediranib + Decitabine; first compound 0.4 µM)	relative viability (Cediranib + Decitabine; first compound 1.265 µM)	relative viability (Cediranib + Decitabine; first compound 4 µM)	relative viability (Decitabine + Navitoclax; first compound 0.04 µM)	relative viability (Decitabine + Navitoclax; first compound 0.1265 µM)	relative viability (Decitabine + Navitoclax; first compound 0.4 µM)	relative viability (Decitabine + Navitoclax; first compound 1.265 µM)	relative viability (Decitabine + Navitoclax; first compound 4 µM)
LC-2-ad	0.68	0.889	0.794	0.557	0.516	0.903	0.888	0.746	0.889	0.608	0.803	0.779	0.784	0.744	0.822	0.323	0.325	0.253	0.197	0.148
NCI-H596	0.764	0.819	–	0.625	0.582	0.923	0.938	0.845	0.67	0.354	1.04	1.1	0.978	0.918	1.18	0.912	0.868	0.638	0.688	0.587
NCI-H1437	1.11	0.881	0.657	0.468	0.391	0.905	0.933	0.871	0.847	0.717	0.67	0.602	0.621	0.562	0.639	0.768	0.676	0.371	0.271	0.27
NCI-H727	0.669	0.675	0.651	0.775	0.483	0.6	0.572	0.713	0.709	0.411	0.818	0.692	0.793	0.894	0.909	0.302	0.361	0.343	0.272	0.292
PC-3 [JPC-3]	0.833	0.71	0.588	0.54	0.472	0.798	0.804	0.75	0.76	0.736	0.804	–	0.777	0.737	0.753	–	0.601	0.526	0.463	0.51
SW 1573	0.769	0.891	0.793	0.591	0.49	0.919	0.85	0.571	0.509	0.143	0.606	0.685	0.542	0.408	0.553	1.15	0.89	0.687	0.356	0.217
NCI-H1650	0.903	0.855	0.553	0.512	0.301	0.653	0.634	0.639	0.774	0.141	0.408	0.482	0.354	0.496	0.385	0.546	0.482	0.434	0.329	0.295
COR-L 105	1.2	0.98	0.881	0.633	0.554	0.667	0.637	0.603	0.656	0.466	0.65	0.676	0.629	0.601	0.729	0.539	0.534	0.437	0.318	0.316
LU99A	0.766	0.814	0.874	0.625	0.486	0.36	0.32	0.281	0.288	0.254	0.936	–	0.844	0.863	0.936	0.745	0.711	0.771	0.53	0.502
H3255	–	0.652	0.484	0.587	0.513	0.598	0.55	0.602	0.601	0.553	0.534	–	0.601	–	0.487	0.201	0.331	0.353	0.328	0.276
NCI-H1734	0.765	0.685	0.651	0.474	0.339	0.579	0.587	0.543	0.554	0.501	0.531	0.512	0.551	0.497	0.536	0.583	0.57	0.424	0.268	0.246
NCI-H1915	0.534	0.396	0.326	0.314	0.326	0.616	0.62	0.643	0.549	0.544	0.259	0.248	0.259	0.26	0.28	0.338	0.253	0.223	0.184	0.188
NCI-H2009	1.21	0.808	0.627	0.494	0.438	0.835	0.795	0.655	0.468	0.264	0.4	0.366	0.369	0.333	0.417	0.945	0.722	0.568	0.416	0.263
NCI-H1651	0.685	0.942	0.783	0.647	0.526	0.825	0.701	0.655	0.665	0.382	0.482	0.538	0.669	0.542	0.652	0.893	1.03	0.958	0.684	0.876
HOP-62	0.773	0.53	0.315	0.197	0.218	0.782	0.803	0.826	0.727	0.576	0.255	0.246	0.215	0.207	0.203	0.572	0.388	0.15	0.172	0.14
NCI-H3122	0.898	0.775	0.715	0.539	0.575	0.894	1.05	0.867	0.943	0.384	0.558	–	0.421	0.417	0.477	0.999	0.984	0.97	0.886	0.76

Cell Line	relative viability (Decitabine + Foretinib; first compound 0.04 µM)	relative viability (Decitabine + Foretinib; first compound 0.1265 µM)	relative viability (Decitabine + Foretinib; first compound 0.4 µM)	relative viability (Decitabine + Foretinib; first compound 1.265 µM)	relative viability (Decitabine + Foretinib; first compound 4 µM)	relative viability (Halofuginone + OSI-027; first compound 0.001 µM)	relative viability (Halofuginone + OSI-027; first compound 0.003162 µM)	relative viability (Halofuginone + OSI-027; first compound 0.01 µM)	relative viability (Halofuginone + OSI-027; first compound 0.03162 µM)	relative viability (Halofuginone + OSI-027; first compound 0.1 µM)	relative viability (Cediranib + Decitabine; first compound 0.04 µM)	relative viability (Cediranib + Decitabine; first compound 0.1265 µM)	relative viability (Cediranib + Decitabine; first compound 0.4 µM)	relative viability (Cediranib + Decitabine; first compound 1.265 µM)	relative viability (Cediranib + Decitabine; first compound 4 µM)	relative viability (Decitabine + Navitoclax; first compound 0.04 µM)	relative viability (Decitabine + Navitoclax; first compound 0.1265 µM)	relative viability (Decitabine + Navitoclax; first compound 0.4 µM)	relative viability (Decitabine + Navitoclax; first compound 1.265 µM)	relative viability (Decitabine + Navitoclax; first compound 4 µM)
NCI-H1395	0.798	0.801	0.687	0.586	0.55	0.665	0.656	0.789	0.594	0.683	0.717	0.769	0.675	0.712	0.77	0.913	0.733	0.715	0.598	0.703
PC-14	–	0.744	0.411	0.313	0.282	0.828	0.962	0.704	0.471	0.0328	0.209	0.245	0.241	0.309	0.264	0.51	0.556	0.231	0.162	0.166
BEN	0.596	0.566	0.35	0.437	0.38	0.341	0.287	0.299	0.288	0.247	0.732	0.431	0.74	0.509	0.722	0.0613	0.0587	0.0516	0.0522	0.0591
EPLC-272H	–	0.611	0.0722	0.304	0.35	0.342	0.278	0.262	0.29	0.257	0.352	–	0.338	0.406	0.354	0.734	0.658	–	0.426	0.413
LK-2	1.45	1.38	0.849	0.39	0.381	0.24	0.237	0.201	0.221	0.167	0.287	0.231	0.396	0.269	0.273	0.739	0.881	0.664	0.358	0.332
ChaGo-K-1	0.819	0.683	0.507	0.376	0.421	0.537	0.605	0.528	0.537	0.501	0.51	0.376	0.506	0.57	0.784	0.681	0.762	0.479	0.611	0.565
HCC-827	0.351	0.383	0.333	0.3	0.279	0.746	0.783	0.76	0.902	0.742	0.314	0.23	0.358	0.297	0.311	–	0.471	0.404	0.269	0.939
NCI-H1993	0.746	0.693	0.824	0.742	0.771	0.56	0.592	0.564	0.47	0.523	–	0.629	0.666	0.518	0.651	0.917	0.993	0.906	0.732	0.87
NCI-H647	0.966	0.919	0.509	0.35	0.234	0.654	0.623	0.618	0.715	0.334	0.415	0.414	0.448	0.349	0.405	0.796	0.836	0.355	0.219	0.178
NCI-H460	0.948	0.816	0.619	0.43	0.193	0.715	0.728	0.614	0.557	0.131	0.505	0.47	0.485	0.479	0.587	0.974	1.03	0.612	0.292	0.198
EMC-BAC-2	0.936	0.861	0.762	0.66	0.588	0.4	0.397	0.38	0.4	0.315	0.953	–	0.989	0.918	1.04	1.08	1.12	0.773	0.705	0.605
NCI-H23	0.692	0.533	0.393	0.39	0.359	0.755	0.554	0.545	0.441	0.344	0.327	0.355	0.31	0.312	0.339	0.558	0.45	0.305	0.21	0.224
NCI-H1793	0.631	0.641	0.533	0.351	0.406	0.299	0.253	0.297	0.288	0.196	0.51	0.477	0.478	0.478	0.506	0.356	0.406	0.333	0.227	0.169
A-427	0.653	0.635	0.354	0.264	0.242	0.472	0.483	0.385	0.445	0.419	0.566	–	0.537	0.537	0.66	0.674	0.578	0.365	0.255	0.191
NCI-H322M	0.818	0.872	0.669	0.485	0.473	0.596	0.652	0.488	0.49	0.346	0.606	0.837	0.715	0.688	0.654	0.841	0.892	0.777	0.505	0.509
COR-L23	0.597	0.605	0.473	0.353	0.246	0.769	0.86	0.72	0.677	0.302	0.528	0.44	0.402	0.332	0.484	0.577	0.478	0.382	0.294	0.207
